According to paper PMC7893122 (Acta Pharmaceutica Sinica. B, 2020):

Key:
[1] = molecular target: BRD4 (BD1) (Homo sapiens, UniProt O60885); test: Homogeneous time-resolved fluorescence binding assay, BRD4; settings: for IC50: IC50 BRD4 (BD1), mean ± SD from three separate experiments; for fold less potent than compound 2 against BRD4: ratio of IC50 values
[2] = test system: HH signaling pathway (GLI-responsive firefly luciferase reporter); test: Dual luciferase reporter assay; type: cell-based; settings: for IC50: read-out: IC50 GLI-luc reporter
[3] = molecular target: hERG channel (Homo sapiens, UniProt Q12809); test: hERG inhibition; type: cell-based
[4] = Pharmacokinetics in Sprague–Dawley rats; type: in vivo; settings: rat; for AUC(0-inf) / AUC(0-t) / MRT inf / clearance / half-life / Cmax / Tmax: Sprague-Dawley, plasma; for Vss_obs: i.v. 1 mg/kg

Sequence of hERG channel (Q12809 whole entry): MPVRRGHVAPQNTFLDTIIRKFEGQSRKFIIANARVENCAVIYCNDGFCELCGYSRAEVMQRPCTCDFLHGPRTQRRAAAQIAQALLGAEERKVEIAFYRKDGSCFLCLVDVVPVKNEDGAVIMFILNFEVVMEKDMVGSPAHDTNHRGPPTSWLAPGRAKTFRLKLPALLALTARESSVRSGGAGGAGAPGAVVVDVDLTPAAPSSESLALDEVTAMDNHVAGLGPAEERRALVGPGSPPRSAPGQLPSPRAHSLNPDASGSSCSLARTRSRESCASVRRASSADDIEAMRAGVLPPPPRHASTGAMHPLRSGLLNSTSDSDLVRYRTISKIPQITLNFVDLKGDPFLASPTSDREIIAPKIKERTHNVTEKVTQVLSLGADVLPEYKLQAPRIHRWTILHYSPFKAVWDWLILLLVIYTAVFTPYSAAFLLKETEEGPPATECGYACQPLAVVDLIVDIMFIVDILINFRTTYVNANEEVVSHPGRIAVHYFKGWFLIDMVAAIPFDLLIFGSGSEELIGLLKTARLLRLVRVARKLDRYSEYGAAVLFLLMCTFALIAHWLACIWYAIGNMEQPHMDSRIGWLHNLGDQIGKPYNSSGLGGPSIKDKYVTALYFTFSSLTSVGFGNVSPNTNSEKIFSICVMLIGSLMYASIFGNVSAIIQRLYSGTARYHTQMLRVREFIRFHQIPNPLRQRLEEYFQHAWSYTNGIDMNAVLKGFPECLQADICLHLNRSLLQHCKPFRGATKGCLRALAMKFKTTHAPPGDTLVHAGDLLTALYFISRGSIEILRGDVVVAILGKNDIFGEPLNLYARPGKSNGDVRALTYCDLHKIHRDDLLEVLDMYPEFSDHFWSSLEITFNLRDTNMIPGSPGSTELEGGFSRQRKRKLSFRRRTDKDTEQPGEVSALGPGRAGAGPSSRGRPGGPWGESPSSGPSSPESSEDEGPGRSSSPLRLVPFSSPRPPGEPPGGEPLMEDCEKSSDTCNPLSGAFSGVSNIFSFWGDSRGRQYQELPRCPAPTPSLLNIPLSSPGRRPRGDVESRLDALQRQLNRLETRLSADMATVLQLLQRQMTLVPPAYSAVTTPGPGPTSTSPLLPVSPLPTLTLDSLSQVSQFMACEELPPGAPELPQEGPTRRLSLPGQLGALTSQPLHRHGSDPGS

For Cn1cc(-c2cc(N3CCCCS3(=O)=O)ccc2N[C@@H]2C[C@@H](CO)[C@@H](O)C2)c2cc[nH]c2c1=O [Compound 39], the IC50 [1] was 3.42 ± 0.25 nM and the IC50 [2] was > 100 nM.
Compound Cn1cc(-c2cc(N3CCCN(CC4(CO)COC4)S3(=O)=O)ccc2Oc2ccc(F)cc2F)c2cc[nH]c2c1=O [Compound 23] has an IC50 [1] of 0.58 ± 0.1 nM and an IC50 [2] of 45.8 ± 19.2 nM.
Cn1cc(-c2cc(N3CCC(CO)S3(=O)=O)ccc2Oc2ccc(F)cc2F)c2cc[nH]c2c1=O (stereo not shown) [Compound 12] gave an IC50 [1] of 0.25 ± 0.05 nM and an IC50 [2] of 3.29 ± 0.14 nM.
Work on COc1nnc2ccc(N3CCC(c4ccc(OCCN5CCN(C)C(=O)[C@H]5C)cc4)CC3)nn12 [AZD5153 (4), (3R)-4-[2-[4-[1-(3-methoxy-[1,2,4]triazolo[4,3-b]pyridazin-6-yl)-4-piperidyl]phenoxy]ethyl]-1,3-dimethyl-piperazin-2-one, reference compound] yielded an IC50 [1] of 18.2 ± 2.7 nM and an IC50 [2] of 32.1 ± 7.71 nM.
In the case of CCNC(=O)c1cc2c(-c3cc(N4CCCS4(=O)=O)ccc3Oc3ccc(F)cc3F)cn(C)c(=O)c2[nH]1 [Compound 30], the IC50 [1] is reported as 0.6 ± 0.41 nM, the IC50 [2] is reported as 0.05 ± 0.01 nM and the IC50 [3] is reported as 6.4 µM. The AUC(0-inf) ([4]; iv, 1 mg/kg) was 278 ng·h/mL, the AUC(0-t) ([4]; iv, 1 mg/kg) was 278 ng·h/mL and the MRT inf ([4]; iv, 1 mg/kg) was 0.794 h. For the same compound, the clearance ([4]; iv, 1 mg/kg) was 61.5 mL/min/kg, the half-life ([4]; iv, 1 mg/kg) was 40.8 min and the AUC(0-inf) ([4]; po, 3 mg/kg) was 9.91 ng·h/mL. The AUC(0-t) ([4]; po, 3 mg/kg) was 9.91 ng·h/mL, the Cmax ([4]; po, 3 mg/kg) was 15.2 ng/mL and the MRT inf ([4]; po, 3 mg/kg) was 0.89 h. The Tmax ([4]; po, 3 mg/kg) was 15 min, the half-life ([4]; po, 3 mg/kg) was 81 min and the Vss_obs [4] was 2891 mL/kg.
For Cc1nnn(C)c1-c1cnc2c3ccc(C(C)(C)O)cc3n([C@H](c3ccccc3)C3CCOCC3)c2c1 [BMS-986158 (1), reference compound], the IC50 [1] was < 0.16 nM and the IC50 [2] was 0.15 ± 0.05 nM.
For CCS(=O)(=O)Nc1ccc(Oc2ccc(F)cc2F)c(-c2cc(Nc3ncc[nH]3)c(=O)n(C)c2)c1 [Compound 9], the IC50 [1] was 47.6 ± 2.9 nM and the IC50 [2] was > 100 nM.
In the case of Cn1cc(-c2cc(N3CCCS3(=O)=O)ccc2Oc2ccc(F)cc2F)c2c(F)c[nH]c2c1=O [Compound 24], the IC50 [1] is reported as 0.5 ± 0.06 nM, the IC50 [2] is reported as 0.93 ± 0.16 nM and the IC50 [3] is reported as > 40 µM. The AUC(0-inf) ([4]; iv, 1 mg/kg) was 509 ng·h/mL, the AUC(0-t) ([4]; iv, 1 mg/kg) was 509 ng·h/mL and the MRT inf ([4]; iv, 1 mg/kg) was 0.76 h. It also gave a clearance ([4]; iv, 1 mg/kg) of 33.2 mL/min/kg, a half-life ([4]; iv, 1 mg/kg) of 33.6 min and an AUC(0-inf) ([4]; po, 3 mg/kg) of 473 ng·h/mL. For the same compound, the AUC(0-t) ([4]; po, 3 mg/kg) was 473 ng·h/mL, the Cmax ([4]; po, 3 mg/kg) was 474 ng/mL and the MRT inf ([4]; po, 3 mg/kg) was 1.26 h. For the same compound, the Tmax ([4]; po, 3 mg/kg) was 30 min, the half-life ([4]; po, 3 mg/kg) was 57 min and the Vss_obs [4] was 1513 mL/kg.
In the case of CCS(=O)(=O)Nc1ccc(Oc2ccc(F)cc2F)c(-c2cc(NS(=O)(=O)CC)c(=O)n(C)c2)c1 [Compound 8], the IC50 [1] is reported as 42.8 ± 9.6 nM and the IC50 [2] is reported as > 100 nM.
For CCS(=O)(=O)Nc1ccc(Oc2ccc(F)cc2F)c(-c2cn(C)c(=O)c3[nH]ccc23)c1 [Compound 2, N-(4-(2,4-difluorophenoxy)-3-(6-methyl-7-oxo-6,7-dihydro-1H-pyrrolo[2,3-c]pyridin-4-yl)phenyl)ethanesulfonamide, reference compound], the IC50 [1] was 3.4 ± 0.2 nM, the “fold selectivity for the HH pathway against BRD4 (fold less potent against BRD4)” value ([2]; BRD4 (BD1) IC50 vs GLI-luc IC50) was ~10 fold and the IC50 [2] was 0.41 ± 0.34 nM. For the same compound, the IC50 [3] was 35.5 µM, the AUC(0-inf) ([4]; iv, 1 mg/kg) was 1200 ng·h/mL and the AUC(0-t) ([4]; iv, 1 mg/kg) was 1190 ng·h/mL. The MRT inf ([4]; iv, 1 mg/kg) was 3.11 h, the clearance ([4]; iv, 1 mg/kg) was 17.6 mL/min/kg and the half-life ([4]; iv, 1 mg/kg) was 164 min. The AUC(0-inf) ([4]; po, 3 mg/kg) was 2050 ng·h/mL, the AUC(0-t) ([4]; po, 3 mg/kg) was 2030 ng·h/mL and the Cmax ([4]; po, 3 mg/kg) was 401 ng/mL. The MRT inf ([4]; po, 3 mg/kg) was 5.45 h, the Tmax ([4]; po, 3 mg/kg) was 165 min and the half-life ([4]; po, 3 mg/kg) was 200 min. The Vss_obs [4] was 2772 mL/kg.
In the case of Cn1cc(-c2cc(N3CCCN(CCN4CCC(CO)C4)S3(=O)=O)ccc2Oc2ccc(F)cc2F)c2cc[nH]c2c1=O (stereo not shown) [Compound 22], the IC50 [2] is reported as > 100 nM.
Cc1noc(C)c1-c1cnc2c(-c3ccc(C(=O)O)cc3)cn([C@@H](C)c3ccccn3)c2c1 [PLX51107, reference compound] gave an IC50 [2] of 5.5 ± 1.3 nM.
Cn1cc(-c2cc(N3CCCC(CO)S3(=O)=O)ccc2Oc2ccc(F)cc2F)c2cc[nH]c2c1=O (stereo not shown) [Compound 13] showed an IC50 [1] of 0.6 ± 0.07 nM and an IC50 [2] of 20.5 ± 7.74 nM.
Cn1cc(-c2cc(N3CCCN(CCN4CCOCC4)S3(=O)=O)ccc2Oc2ccc(F)cc2F)c2cc[nH]c2c1=O [Compound 19] showed an IC50 [1] of 1.47 ± 0.03 nM and an IC50 [2] of 17.7 ± 11 nM.
In the case of Cn1cc(-c2cc(N3CCCS3(=O)=O)ccc2Oc2ccc(F)cc2F)c2cc(C(=O)O)[nH]c2c1=O [Compound 26], the IC50 [1] is reported as 21 ± 11 nM, the “fold less potent than compound 2 against BRD4” value [1] is reported as > 4 fold and the IC50 [2] is reported as > 100 nM.
For CCS(=O)(=O)Nc1ccc(Oc2ccc(F)cc2F)c(-c2cc(NC(=O)OCCOC)c(=O)n(C)c2)c1 [Compound 6], the IC50 [1] was > 100 nM and the IC50 [2] was > 100 nM.
For Cn1cc(-c2cc(N3CCCS3(=O)=O)ccc2Oc2ccc(F)cc2F)c2cc(C(N)=O)[nH]c2c1=O [Compound 28], the IC50 [1] was 0.09 ± 0.04 nM, the “fold less potent for the HH pathway than against BRD4” value ([2]; GLI-luc IC50 vs BRD4 (BD1) IC50) was 16 fold and the IC50 [2] was 1.5 ± 0.39 nM. For the same compound, the IC50 [3] was > 40 µM.
For CCOC(=O)Nc1cc(-c2cc(NS(=O)(=O)CC)ccc2Oc2ccc(F)cc2F)cn(C)c1=O [Compound 5], the IC50 [1] was 27.6 ± 5.7 nM, the “fold less potent than compound 2 against BRD4” value [1] was 8 fold and the IC50 [2] was 157 ± 1.3 nM.
With CCNC(=O)c1cc2c(-c3cc(N4CCCCS4(=O)=O)ccc3Oc3ccc(F)cc3F)cn(C)c(=O)c2[nH]1 [Compound 31] the IC50 [1] was 0.13 ± 0.005 nM, the IC50 [2] was 0.81 ± 0.24 nM and the IC50 [3] was 11.7 µM. The AUC(0-inf) ([4]; iv, 1 mg/kg) was 217 ng·h/mL, the AUC(0-t) ([4]; iv, 1 mg/kg) was 213 ng·h/mL and the MRT inf ([4]; iv, 1 mg/kg) was 0.57 h. For the same compound, the clearance ([4]; iv, 1 mg/kg) was 77.6 mL/min/kg, the half-life ([4]; iv, 1 mg/kg) was 41.4 min and the AUC(0-inf) ([4]; po, 3 mg/kg) was 22.1 ng·h/mL. It also gave an AUC(0-t) ([4]; po, 3 mg/kg) of 18.3 ng·h/mL, a Cmax ([4]; po, 3 mg/kg) of 15.5 ng/mL and an MRT inf ([4]; po, 3 mg/kg) of 2.38 h. For the same compound, the Tmax ([4]; po, 3 mg/kg) was 19.8 min, the half-life ([4]; po, 3 mg/kg) was 93 min and the Vss_obs [4] was 3512 mL/kg.
With Cc1sc2c(c1C)C(c1ccc(Cl)cc1)=N[C@@H](CC(=O)Nc1ccc(O)cc1)c1nnc(C)n1-2 [OTX-015, reference compound] the IC50 [2] was 0.64 ± 0.02 nM.
For CCCC(=O)Nc1cc(-c2cc(NS(=O)(=O)CC)ccc2Oc2ccc(F)cc2F)cn(C)c1=O [Compound 7], the IC50 [1] was > 100 nM and the IC50 [2] was > 100 nM.
For CN1C(=O)C(C)(C)Oc2c(-c3cn(C)c(=O)c4[nH]ccc34)cc(S(C)(=O)=O)cc21 [INCB-057643, reference compound], the IC50 [1] was 11.6 ± 1.8 nM and the IC50 [2] was 40.6 ± 4.9 nM.
With CN1CCN(CCCNC(=O)c2cc3c(-c4cc(N5CCCS5(=O)=O)ccc4Oc4ccc(F)cc4F)cn(C)c(=O)c3[nH]2)CC1 [Compound 32] the IC50 [1] was 0.75 ± 0.07 nM and the IC50 [2] was > 100 nM.
In the case of CCS(=O)(=O)Nc1ccc(Oc2ccc(F)cc2F)c(-c2cc(Nc3ccncn3)c(=O)n(C)c2)c1 [Compound 11], the IC50 [1] is reported as > 100 nM and the IC50 [2] is reported as > 100 nM.
CN(CCO)CCN1CCCN(c2ccc(Oc3ccc(F)cc3F)c(-c3cn(C)c(=O)c4[nH]ccc34)c2)S1(=O)=O [Compound 20] gave an IC50 [1] of 1.01 ± 0.34 nM and an IC50 [2] of 42.8 ± 30.7 nM.
For Cn1cc(-c2cc(N3CCCS3(=O)=O)ccc2Oc2ccc3occc3c2)c2cc[nH]c2c1=O [Compound 33], the IC50 [1] was 2.85 ± 0.5 nM and the IC50 [2] was 1.03 ± 0.28 nM.
For CCS(=O)(=O)Nc1ccc(Oc2ccc(F)cc2F)c(-c2cc(Nc3ccccn3)c(=O)n(C)c2)c1 [Compound 10], the IC50 [1] was > 100 nM and the IC50 [2] was > 100 nM.
With CN(C)CCN1CCCN(c2ccc(Oc3ccc(F)cc3F)c(-c3cn(C)c(=O)c4[nH]ccc34)c2)S1(=O)=O [Compound 18] the IC50 [1] was 1.52 ± 0.72 nM and the IC50 [2] was 56.1 ± 8.25 nM.
In the case of Cn1cc(-c2cc(N3CCCCS3(=O)=O)ccc2Oc2ccc(F)cc2F)c2cc(C(=O)O)[nH]c2c1=O [Compound 27], the IC50 [1] is reported as 14.3 ± 4.52 nM, the “fold less potent than compound 2 against BRD4” value [1] is reported as > 4 fold and the IC50 [2] is reported as > 100 nM.
In the case of Cn1cc(-c2cc(N3CCCCS3(=O)=O)ccc2Oc2ccc(F)cc2F)c2cc(C(N)=O)[nH]c2c1=O [Compound 29], the IC50 [1] is reported as 0.09 ± 0.08 nM and the IC50 [2] is reported as 2.46 ± 0.3 nM.
